Read-outs that look alike come from different tables or passages of the source.
Columns and labels:
[1] = molecular target: T1, co-stimulated CCR2-AT1R complexes (Homo sapiens, UniProt P30556); assay: Gαi protein dissociation assay (ligand-induced BRET) in HEK293FT cells co-stimulated with AngII and MCP-1/CCL2; format: cell-based
T1 construct: HA (haemagglutinin); expressed in transfected cells; host or cells: HEK293FT
Text: To establish if ARBs maintain their potency for inhibition of Gαi protein activation the potencies of ARBs at AT1R only were correlated with the potency of ARBs at co-stimulated CCR2-AT1R complexes obtained from a Gαi protein dissociation assay (FIG. 2).
HEK293FT cells were transiently transfected by the plasmids coding for Gαi1-Nluc and CCR2-YFP haemagglutinin (HA)-tagged AT1R.
GraphPad Prism (v9.3.1) was then used plot ligand-induced BRET verses ARB concentration and potency (pIC50-values) were obtained by fitting a sigmoidal concentration response curve using non-linear regression function of GraphPad Prism (v9.3.1).
To calculate the potency of sparsentan HEK293FT cells were transiently transfected by the plasmids coding for Gαi1-Rluc8, CCR2-YFP and haemagglutinin (HA)-tagged AT1R. 48 h post-transfection, cells were incubated with substrate for 2 hours before cells were pre-incubated with sparsentan (1 μM) and filtered light emissions were sequentially measured for 1 s in each of the ‘donor wavelength window’ (410-490 nm) and ‘acceptor wavelength window’ (520-620 nm) for 30 minutes.
The potency of ARBs at co-stimulated CCR2-AT1R complexes was then compared to the potency of ARBs at AT1R using the linear regression function of GraphPad Prism (v9.3.1).

AT1R [2] = molecular target: T2, AT1R (Homo sapiens, UniProt P30556); settings: pIC50 or pKb from IUPHAR and/or Michel et al (2013), fimasartan from Choung et al 2018; cited from earlier work
T2 sequence (P30556 1-359): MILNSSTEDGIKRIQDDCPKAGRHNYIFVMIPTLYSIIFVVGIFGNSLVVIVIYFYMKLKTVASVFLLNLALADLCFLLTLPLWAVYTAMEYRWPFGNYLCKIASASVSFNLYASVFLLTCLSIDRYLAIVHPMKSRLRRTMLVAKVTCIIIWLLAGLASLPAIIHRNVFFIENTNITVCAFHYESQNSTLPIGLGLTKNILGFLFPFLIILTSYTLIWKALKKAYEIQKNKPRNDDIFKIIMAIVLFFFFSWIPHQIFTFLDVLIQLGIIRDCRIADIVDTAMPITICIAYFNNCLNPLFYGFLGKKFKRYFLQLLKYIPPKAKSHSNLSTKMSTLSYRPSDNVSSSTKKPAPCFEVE

AT1R [3] = molecular target: T2, AT1R; assay: ARB potency or affinity at AT1R only (public sources: IUPHAR guide to pharmacology, Michel et al 2013, Choung et al 2018); format: binding; settings: reference value
[4] = system: chemotactic migration of monocytes by MCP-1; settings: cited from earlier work
[5] = system: protein to creatinine ratio; assay: Reduction in protein to creatinine ratio as a biomarker of kidney function; format: in vivo, human; settings: 120 mg BID
[6] = Effect of different doses of repagermanium on efficacy of treatment (FIG. 1); format: in vivo
[7] = Population pharmacokinetic analysis of repagermanium (studies DMX-200-101, -202, -203; LC-MS/MS plasma levels); format: in vivo, human; settings: for AUC(0-t) at 24 h: 240 mg/day, read-out: AUC24h, steady state, median; for AUC(0-t) at 24 h / AUC24h, steady state, range: 240 mg total daily dose; for CL/F: po, read-out: Clearance, median (converted)
Method: In all studies blood samples were analyzed using liquid chromatography tandem mass spectrometry (LC-MS/MS). This method involves the addition of deuterated-PPG (d2-PPG) as an internal standard (IS) and liquid-liquid extraction with chloroform for sample processing. The sample is analyzed on an LC-MS/MS system consisting of a Shimadzu LC20AD with Thermo Fisher Hypercarb column using gradient elution and an API 4000 mass spectrometer. The mass spectrometer is operated in the negative electrospray ionization (ESI) ion mode, and used to monitor the precursor to product ion transitions for PPG and d2-PPG, respectively. The lower limit of quantification (LLOQ) was 5 ng/ml.
The pharmacometric analysis was carried out in several steps driven by the suitability of the clinical data for development of the PK model. 1. An initial structural population PK model was developed using data from healthy volunteers (study 101). 2. This model was subsequently updated using the sparse data in patients from studies 202 and 203, and effects of covariates were explored. 3. Model qualification was performed. 4. Finally, the developed model was used for simulations of the influence of covariates on key PK parameters as well as on potential exposures.
The SAS software (version 9.4) was used for preparing the analysis dataset. The population PK analysis was performed using NONMEM (version 7.5.0) and the first order conditional estimation (FOCE) method with interaction. PsN (version≥5.0.0) was used to execute NONMEM runs as well as for running visual predictive checks (VPCs), sampling importance resampling (SIR) and automated step-wise covariate modelling (SCM). The R software (version≥4.0.2) was used for exploratory analysis, creation of goodness of fit (GOF) plots, and summary statistics. Campsis (version 1.1.0), an R-based software application provided by Calvagone, was used for simulations.
The NONMEM version 7.5.0 was used with the GNU Fortran (GCC) compiler version 9.3.0, running on a Ubuntu 20.04 LTS system with Linux kernel version 5.4.0-72-generic on Intel Xeon E5-2640 v3 @ 8 HT 2.60 GHz, using VMWare ESXi 7.0u1 platform with fault tolerance, hosting virtual management server with 8 vCPU; and calculation nodes with Intel Xeon E5-2680 v4 14HT 2.40 GHz. Fortran compiler optimisation options were:-static-w-O3-ffast-math. All software was used in a validated environment.
In the mixed effects modelling the population parameters are categorised as follows: Fixed effects parameters, θ (theta), are used for the structural population parameters (e.g. Ka, CL, V, F, etc.), as well as certain parameters relating the population parameters to the physiological or demographic variables (covariates) included in the analysis. Random effects parameters, n (eta), are used for describing inter-individual variability (IIV) in the fixed effects parameters, and can also be used to describe inter-occasion variability (IOV) if appropriately included in the model. Eta parameters are assumed to be normally distributed random variables with mean zero and variance-covariance matrix Q (omega). The square root of the diagonal elements of this matrix provides the IIV estimates. Off-diagonal elements (if not fixed to zero) are commonly translated to correlations. Random effects parameters, ¿ (epsilon), are used to describe the residual variability. Residual variability includes intra-individual error, analytical error, potential error due to model missspecification and any other error not considered by structural elements such as θ and η. Residual variability parameters are assumed to be normally distributed random variables with mean zero and standard deviation σ (sigma).
Different structural models combined with different residual error models and, if needed, with different estimation methods were applied to identify the most appropriate mixed-effects model. […]

[8] = system: angiotensin II-induced cellular responses; settings: compared with losartan; cited from earlier work
[9] = study 101, healthy volunteers, oral
[10] = study 202, FSGS patients receiving irbesartan
[11] = study 203, DKD patients receiving irbesartan

T1 sequence (P41597 whole entry partner, one chain of several): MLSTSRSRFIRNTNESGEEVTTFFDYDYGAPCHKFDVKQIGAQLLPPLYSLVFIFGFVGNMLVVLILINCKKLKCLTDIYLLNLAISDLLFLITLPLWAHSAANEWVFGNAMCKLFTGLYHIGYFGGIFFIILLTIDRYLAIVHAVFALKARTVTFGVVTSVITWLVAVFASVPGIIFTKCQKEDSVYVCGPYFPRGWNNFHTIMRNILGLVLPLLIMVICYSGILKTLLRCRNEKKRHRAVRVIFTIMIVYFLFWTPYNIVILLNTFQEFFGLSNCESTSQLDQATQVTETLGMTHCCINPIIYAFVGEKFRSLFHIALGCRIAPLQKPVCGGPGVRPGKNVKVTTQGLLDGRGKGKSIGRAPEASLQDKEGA

Compound: CCOc1nc2cccc(C(=O)O)c2n1Cc1ccc(-c2ccccc2-c2nc(=O)o[nH]2)cc1 [Azilsartan]
- Potency (pIC50), AT1R-CCR2 ([1]; HEK293FT, 100 nM AngII + 100 nM MCP-1, 30 min ARB pre-incubation): 9.97
- Potency (pIC50/pKb), AT1R only (AT1R [2]): 9.9
- Fold decrease in potency, AT1R only (AT1R [3]): 1.00 fold

Compound: O=C(O)C[CH2][Ge](=[O])[O][Ge](=[O])[CH2]CC(=O)O [propagermanium, 3-[(2-carboxyethyl-oxogermyl)oxy-oxogermyl] propanoic acid]
- inhibition of in vitro chemotactic migration of monocytes by MCP-1 [4]: specifically inhibit in vitro chemotactic migration of monocytes by MCP-1

Compound: CCCCC1=NC2(CCCC2)C(=O)N1Cc1ccc(-c2ccccc2S(=O)(=O)Nc2noc(C)c2C)c(COCC)c1 [Sparsentan, 2-[4-[(2-butyl-4-oxo-1,3-diazaspiro[4.4]non-1-en-3-yl)methyl]-2-(ethoxymethyl)phenyl]-N-(4,5-dimethyl-1,2-oxazol-3-yl)benzenesulfonamide]
- Kb ([1]; read-out: Affinity (pKb), AT1R-CCR2 (converted)): 1.74 nM
- Potency (pIC50/pKb), AT1R only (AT1R [2]): 9.1
- Fold decrease in potency, AT1R only (AT1R [3]): 1.00 fold

Compound: CCCCc1ncc(/C=C(\Cc2cccs2)C(=O)O)n1Cc1ccc(C(=O)O)cc1 [Eprosartan]
- Potency (pIC50/pKb), AT1R only (AT1R [2]): 8.8
- Fold decrease in potency, AT1R only (AT1R [3]): 1.00 fold

Compound: CCCCc1nc(C)c(CC(=S)N(C)C)c(=O)n1Cc1ccc(-c2ccccc2-c2nnn[nH]2)cc1 [Fimasartan]
- Potency (pIC50/pKb), AT1R only (AT1R [2]): 8.82^$
- Fold decrease in potency, AT1R only (AT1R [3]): 1.00 fold

Compound: O=C(O)C[CH2][Ge](=[O])[O][Ge](=[O])[CH2]CC(=O)O [repagermanium, 3-[(2-carboxyethyl-oxogermyl)oxy-oxogermyl]propanoic acid]
- protein to creatinine ratio [5]: reduction in protein to creatinine ratio
- therapeutic effect ([6]; 140 mg twice per day): reduced therapeutic effect
- efficacy vs repagermanium dose ([6]; different doses, FIG. 1): ‘bell-shaped’ inhibitory curve
- blood concentration before the next dose ([7]; 80 mg twice per day): falling too low before the next dose to provide a therapeutic effect
- steady state AUC, range ([7]; 120 mg BID): 5000 to 25000 ng·h/mL
- AUC(0-t) at 24 h ([7]; human, plasma, study 101, healthy volunteers): 9800 ng·h/mL
- AUC(0-t) at 24 h ([7]; human, plasma, study 202, FSGS patients): 16700 ng·h/mL
- AUC(0-t) at 24 h ([7]; human, plasma, study 203, DKD patients): 11800 ng·h/mL
- CL/F ([7]; human, plasma, study 101, healthy volunteers, oral): 670 mL/min
- CL/F ([7]; human, plasma, study 202, FSGS patients receiving irbesartan, 120 mg bid oral): 300 mL/min
- CL/F ([7]; human, plasma, study 203, DKD patients receiving irbesartan, 120 mg bid oral): 345 mL/min
- AUC ([7]; human, plasma, 120 mg BID, read-out: steady state AUC): ~15000 ng·h/mL
- Clearance, range [7, 9]: 24.6 to 60.1 L/h
- F (rel. bioavailability), median [7, 9]: 1.6
- F (rel. bioavailability), range [7, 9]: 0.7-3.7
- AUC24h, steady state, range ([7]; study 101, healthy volunteers): 5500 to 24900 ng·h/mL
- F (rel. bioavailability), median [7, 10]: 1.1
- F (rel. bioavailability), range [7, 10]: 0.9-1.7
- Clearance, range ([7]; study 202, FSGS patients receiving irbesartan, 120 mg bid oral): 4.6 to 36.5 L/h
- AUC24h, steady state, range ([7]; study 202, FSGS patients): 7800 to 45200 ng·h/mL
- F (rel. bioavailability), median [7, 11]: 1.0
- F (rel. bioavailability), range [7, 11]: 0.4-1.9
- Clearance, range ([7]; study 203, DKD patients receiving irbesartan, 120 mg bid oral): 5.8 to 47.6 L/h
- AUC24h, steady state, range ([7]; study 203, DKD patients): 3900 to 47700 ng·h/mL

Compound: CCCCc1nc(Cl)c(C(=O)O)n1Cc1ccc(-c2ccccc2-c2nn[nH]n2)cc1 [EXP3174]
- potency in blocking angiotensin II-induced cellular responses [8]: significantly more potent than losartan

Compound: CCOc1nc2cccc(C(=O)O)c2n1Cc1ccc(-c2ccccc2-c2nnn[nH]2)cc1 [Candesartan]
- Potency (pIC50/pKb), AT1R only (AT1R [2]): 10
- Fold decrease in potency, AT1R only (AT1R [3]): 1.00 fold
